Data reported in ChEMBL document CHEMBL4219247, “Inhibitors of dihydrofolate reductase as antitumor agents: design, synthesis and biological evaluation of a series of novel nonclassical 6-substituted pyrido[3,2-d]pyrimidines with a three- to five-carbon bridge” (Bioorg Med Chem, 2018).
pIC50: −log10 of the molar value.

What was measured:
HCT-116 = assay: Antiproliferative activity against human HCT116 cells after 48 hrs by MTS assay; format: functional, cell-based; details: HCT-116, 48 h
HL-60 [1] = assay: Antiproliferative activity against human HL60 cells after 48 hrs by MTS assay; format: functional, cell-based; details: HL-60, 48 h
Dihydrofolate reductase = molecular target: T1, Dihydrofolate reductase (Homo sapiens, UniProt P00374); assay: Inhibition of recombinant human DHFR using dihydrofolate as substrate after 15 mins in presence of NADPH
T1 sequence (P00374 whole entry): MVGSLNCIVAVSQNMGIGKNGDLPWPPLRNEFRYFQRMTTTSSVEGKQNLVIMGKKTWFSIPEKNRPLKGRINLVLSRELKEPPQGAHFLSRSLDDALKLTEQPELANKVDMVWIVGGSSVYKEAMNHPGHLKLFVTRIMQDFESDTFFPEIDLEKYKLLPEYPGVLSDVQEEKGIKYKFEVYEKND

HeLa = assay: Antiproliferative activity against human HeLa cells after 48 hrs by MTS assay
HL-60 [2] = assay: Upregulation of DHFR protein level in human HL60 cells at 0.25 uM after 48 hrs by Western blot method relative to control; format: functional
HL-60 [3] = assay: Upregulation of DHFR protein level in human HL60 cells at 0.5 uM after 48 hrs by Western blot method relative to control; format: functional
HL-60 [4] = assay: Induction of apoptosis in human HL60 cells assessed as late apoptotic cells at 0.2 uM after 24 hrs by Annexin V-FITC/propidium iodide staining based flow cytometry (reference value: 4.84%); format: functional
HL-60 [5] = assay: Upregulation of DHFR protein level in human HL60 cells at 0.125 uM after 48 hrs by Western blot method relative to control; format: functional
HL-60 [6] = assay: Cell cycle arrest in human HL60 cells assessed as accumulation at G2 phase at 4 uM after 24 hrs by propidium iodide staining based flow cytometry (reference value: 13.56%); format: functional
HL-60 [7] = assay: Induction of apoptosis in human HL60 cells assessed as late apoptotic cells at 0.1 uM after 24 hrs by Annexin V-FITC/propidium iodide staining based flow cytometry (reference value: 4.84%); format: functional
HL-60 [8] = assay: Induction of apoptosis in human HL60 cells assessed as necrotic cells at 0.2 uM after 24 hrs by Annexin V-FITC/propidium iodide staining based flow cytometry (reference value: 2.36%); format: functional
HL-60 [9] = assay: Induction of apoptosis in human HL60 cells assessed as live cells at 0.1 uM after 24 hrs by Annexin V-FITC/propidium iodide staining based flow cytometry (reference value: 90.7%); format: functional
HL-60 [10] = assay: Induction of apoptosis in human HL60 cells assessed as early apoptotic cells at 0.1 uM after 24 hrs by Annexin V-FITC/propidium iodide staining based flow cytometry (reference value: 2.09%); format: functional
HL-60 [11] = assay: Cell cycle arrest in human HL60 cells assessed as accumulation at S phase at 4 uM after 24 hrs by propidium iodide staining based flow cytometry (reference value: 57.76%); format: functional
HL-60 [12] = assay: Cell cycle arrest in human HL60 cells assessed as accumulation at G1 phase at 4 uM after 24 hrs by propidium iodide staining based flow cytometry (reference value: 28.69%); format: functional
HL-60 [13] = assay: Induction of apoptosis in human HL60 cells assessed as live cells at 0.2 uM after 24 hrs by Annexin V-FITC/propidium iodide staining based flow cytometry (reference value: 90.7%); format: functional
HL-60 [14] = assay: Induction of apoptosis in human HL60 cells assessed as early apoptotic cells at 0.2 uM after 24 hrs by Annexin V-FITC/propidium iodide staining based flow cytometry (reference value: 2.09%); format: functional
HL-60 [15] = assay: Upregulation of DHFR protein level in human HL60 cells after 48 hrs by Western blot method; format: functional, cell-based
HL-60 [16] = assay: Cell cycle arrest in human HL60 cells assessed as accumulation at G1 phase at 1 uM after 24 hrs by propidium iodide staining based flow cytometry (reference value: 28.69%); format: functional
HL-60 [17] = assay: Cell cycle arrest in human HL60 cells assessed as accumulation at S phase at 1 uM after 24 hrs by propidium iodide staining based flow cytometry (reference value: 57.76%); format: functional
HL-60 [18] = assay: Cell cycle arrest in human HL60 cells assessed as accumulation at G2 phase at 1 uM after 24 hrs by propidium iodide staining based flow cytometry (reference value: 13.56%); format: functional
HL-60 [19] = assay: Induction of apoptosis in human HL60 cells assessed as necrotic cells at 0.1 uM after 24 hrs by Annexin V-FITC/propidium iodide staining based flow cytometry (reference value: 2.36%); format: functional

## Nc1nc(N)c2nc(CCCCCc3ccccc3)ccc2n1
HCT-116
  pIC50: 4.93
HL-60 [1]
  pIC50: 6.11
Dihydrofolate reductase
  pIC50: 6.15
HeLa
  pIC50: 4.39

## Nc1nc(N)c2nc(CCC(O)c3ccccc3)ccc2n1 (stereo not drawn)
HCT-116
  pIC50: 4.76
HL-60 [1]
  pIC50: 5.82
Dihydrofolate reductase
  pIC50: 5.56
HeLa
  pIC50: 4.13

## CN(Cc1cnc2nc(N)nc(N)c2n1)c1ccc(C(=O)N[C@@H](CCC(=O)O)C(=O)O)cc1 [METHOTREXATE]
HCT-116
  pIC50: 6.89
HL-60 [1]
  pIC50: 7.60

## Nc1nc(N)c2nc(/C=C/C(=O)c3ccccc3)ccc2n1
HCT-116
  pIC50: 4.99
HL-60 [1]
  pIC50: 5.82
Dihydrofolate reductase
  pIC50: < 4.00
HeLa
  pIC50: 5.48

## Nc1nc(N)c2nc(/C=C/C=C/c3ccccc3)ccc2n1
HCT-116
  pIC50: 4.75
HL-60 [1]
  pIC50: 5.17
Dihydrofolate reductase
  pIC50: 4.91
HeLa
  pIC50: 4.83

## Nc1nc(N)c2nc(/C=C/C(=O)/C=C/c3ccccc3)ccc2n1
HCT-116
  pIC50: 4.92
HL-60 [1]
  pIC50: 5.97
Dihydrofolate reductase
  pIC50: 4.15
HeLa
  pIC50: 5.43

## Nc1nc(N)c2nc(CCC(=O)c3ccccc3)ccc2n1
HCT-116
  pIC50: 4.68
HL-60 [1]
  pIC50: 5.09
Dihydrofolate reductase
  pIC50: 4.95
HeLa
  pIC50: 4.07

## Nc1nc(N)c2nc(CCC(O)CCc3ccccc3)ccc2n1 (stereo not drawn)
HCT-116
  pIC50: 4.69
HL-60 [1]
  pIC50: 5.91
Dihydrofolate reductase
  pIC50: 5.60
HeLa
  pIC50: 4.19

## Nc1nc(N)c2nc(CCCc3ccccc3)ccc2n1
HCT-116
  pIC50: 5.02
HL-60 [2]
  fold change (FC): 1.62
HL-60 [3]
  fold change (FC): 1.98
HL-60 [4]
  Activity: 11.06%
HL-60 [5]
  fold change (FC): 1.03
HL-60 [6]
  Activity: 0%
HL-60 [7]
  Activity: 6.69%
HL-60 [8]
  Activity: 5.96%
HL-60 [9]
  Activity: 87.64%
HL-60 [10]
  Activity: 3.45%
HL-60 [1]
  pIC50: 6.70
HL-60 [11]
  Activity: 80.66%
HL-60 [12]
  Activity: 19.34%
Dihydrofolate reductase
  pIC50: 7.22
HL-60 [13]
  Activity: 76.35%
HL-60 [14]
  Activity: 6.63%
HL-60 [15]
  Activity: Dose-dependent effect
HL-60 [16]
  Activity: 24.26%
HL-60 [17]
  Activity: 62.39%
HeLa
  pIC50: 4.31
HL-60 [18]
  Activity: 13.35%
HL-60 [19]
  Activity: 2.21%

## Nc1nc(N)c2nc(CCC(=O)CCc3ccccc3)ccc2n1
HCT-116
  pIC50: 4.48
HL-60 [1]
  pIC50: 5.43
Dihydrofolate reductase
  pIC50: 5.10
HeLa
  pIC50: 4.11

## Nc1nc(N)c2nc(CCCCc3ccccc3)ccc2n1
HCT-116
  pIC50: 4.96
HL-60 [1]
  pIC50: 6.23
Dihydrofolate reductase
  pIC50: 6.21
HeLa
  pIC50: 4.33

## Nc1nc(N)c2nc(/C=C/CCCc3ccccc3)ccc2n1
HCT-116
  pIC50: 4.81
HL-60 [1]
  pIC50: 5.88
Dihydrofolate reductase
  pIC50: 5.68
HeLa
  pIC50: 4.76

## Nc1nc(N)c2nc(/C=C/Cc3ccccc3)ccc2n1
HCT-116
  pIC50: 4.88
HL-60 [1]
  pIC50: 6.46
Dihydrofolate reductase
  pIC50: 6.23
HeLa
  pIC50: 4.60
